Results as given in patent US9938322B2, “β-hairpin peptidomimetics” (priority 2013, dated 2018).
Where a SMILES comes first, the peptide text is derived from it. [ ]: non-standard residue; d: D form. Ala(4-thiazolyl) = N[C@@H](Cc1cscn1)C(=O)O; Cha = N[C@@H](CC1CCCCC1)C(=O)O; Agp = N=C(N)NC[C@H](N)C(=O)O; Chg = N[C@H](C(=O)O)C1CCCCC1; Tle = CC(C)(C)[C@H](N)C(=O)O; dDab = NCC[C@@H](N)C(=O)O; Orn = NCCC[C@H](N)C(=O)O; Api = NC1(C(=O)O)CCNCC1; Dab = NCC[C@H](N)C(=O)O; Nva = CCC[C@H](N)C(=O)O; Dap = NC[C@H](N)C(=O)O

System: human red blood cells (hRBC)
Test: Hemolysis of human red blood cells
Format: cell-based
Settings: red cells of human, 1 h, 100
Outline: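 Washed fresh human erythrocytes (20% v/v, about 0.9×10^9 cells/ml final) incubated with peptide at 100 μg/ml for 1 h at 37° C with shaking. Supernatant OD540 read; hemolysis expressed relative to 2.5% Triton X-100 (100%) and PBS with 0.001% acetic acid (0%).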

| SMILES | Hemolysis at 100 μg/ml |
| --- | --- |
| C[C@@H]1NC(=O)[C@H](Cc2c[nH]c3ccccc23)NC(=O)[C@@H]2CCCN2C(=O)[C@H]2CCCN2C(=O)[C@H](CO)NC(=O)[C@H](CNC(=N)N)NC(=O)[C@H](C(C)(C)C)NC(=O)[C@H](CCN)NC(=O)[C@H](Cc2c[nH]c3ccccc23)NC(=O)[C@H](CCN)NC(=O)[C@@H](CCN)NC(=O)[C@H](CCCN)NC(=O)[C@H](CCN)NC(=O)[C@H](CC2CCCCC2)NC1=O [compound 23] (cyclo(WA[Cha][Dab][Orn][dDab][Dab]W[Dab][Tle][Agp]S[dP]P)) | 1.7% |
| CC(C)C[C@@H]1NC(=O)[C@@H]2CCCN2C(=O)[C@H]2CCCN2C(=O)[C@H](CO)NC(=O)[C@H](C)NC(=O)[C@H](C(C)(C)C)NC(=O)[C@H](CCN)NC(=O)[C@H](Cc2c[nH]c3ccccc23)NC(=O)[C@H](CCN)NC(=O)[C@@H](CCN)NC(=O)[C@H](CCCCN)NC(=O)[C@H](CCN)NC(=O)[C@H](Cc2ccc(O)cc2)NC(=O)[C@H](CO)NC1=O [compound 25] (cyclo(LSY[Dab]K[dDab][Dab]W[Dab][Tle]AS[dP]P)) | 1% |
| CC(C)C[C@@H]1NC(=O)[C@@H]2CCCN2C(=O)[C@H]2CCCN2C(=O)[C@H](CO)NC(=O)[C@H](Cc2ccc(O)cc2)NC(=O)[C@H](C(C)(C)C)NC(=O)[C@H](CCN)NC(=O)[C@H](Cc2c[nH]c3ccccc23)NC(=O)[C@H](CCN)NC(=O)[C@@H](CCN)NC(=O)[C@H](CCCN)NC(=O)[C@H](CCN)NC(=O)[C@H](Cc2ccc(O)cc2)NC(=O)[C@H](CC(=O)O)NC1=O [compound 112] (cyclo(LDY[Dab][Orn][dDab][Dab]W[Dab][Tle]YS[dP]P)) | 0% |
| C[C@@H]1NC(=O)[C@H](C(C)(C)C)NC(=O)[C@H](CCN)NC(=O)[C@H](Cc2c[nH]c3ccccc23)NC(=O)[C@H](CCN)NC(=O)C2(CCNCC2)NC(=O)[C@H](CCCN)NC(=O)[C@H](CCN)NC(=O)[C@H](CC2CCCCC2)NC(=O)[C@H](CN)NC(=O)[C@H](Cc2c[nH]c3ccccc23)NC(=O)[C@@H]2CCCN2C(=O)[C@H]2CCCN2C(=O)[C@H](CO)NC1=O [Ex. 62] (cyclo(W[Dap][Cha][Dab][Orn][Api][Dab]W[Dab][Tle]AS[dP]P)) | 1% |
| CC(C)C[C@@H]1NC(=O)[C@@H]2CCCN2C(=O)[C@H]2CCCN2C(=O)[C@H](CO)NC(=O)[C@H](C)NC(=O)[C@H](Cc2c[nH]c3ccccc23)NC(=O)[C@H](CCN)NC(=O)[C@H](Cc2c[nH]c3ccccc23)NC(=O)[C@H](CCN)NC(=O)[C@@H](CCN)NC(=O)[C@H](CCCN)NC(=O)[C@H](CCN)NC(=O)[C@H](Cc2c[nH]c3ccccc23)NC(=O)[C@H](CO)NC1=O [compound 109] (cyclo(LSW[Dab][Orn][dDab][Dab]W[Dab]WAS[dP]P)) | 2% |
| CCC[C@@H]1NC(=O)[C@@H]2CCCN2C(=O)[C@H]2CCCN2C(=O)[C@H](CO)NC(=O)[C@H](CO)NC(=O)[C@H](C(C)(C)C)NC(=O)[C@H](CCN)NC(=O)[C@H](Cc2c[nH]c3ccccc23)NC(=O)[C@H](CCN)NC(=O)[C@@H](CCN)NC(=O)[C@H](CCCN)NC(=O)[C@H](CCN)NC(=O)[C@H](CC2CCCCC2)NC(=O)[C@H](CO)NC1=O [compound 144] (cyclo([Nva]S[Cha][Dab][Orn][dDab][Dab]W[Dab][Tle]SS[dP]P)) | 7% |
| COc1ccc(C[C@@H]2NC(=O)[C@H](CO)NC(=O)[C@H](CC(C)C)NC(=O)[C@@H]3CCCN3C(=O)[C@H]3CCCN3C(=O)[C@H](CO)NC(=O)[C@H](C)NC(=O)[C@H](C(C)(C)C)NC(=O)[C@H](CCN)NC(=O)[C@H](Cc3c[nH]c4ccccc34)NC(=O)[C@H](CCN)NC(=O)[C@@H](CCN)NC(=O)[C@H](CCCN)NC(=O)[C@H](CCN)NC2=O)cc1 [compound 27] (cyclo(LSY(Me)[Dab][Orn][dDab][Dab]W[Dab][Tle]AS[dP]P)) | 1% |
| CC(C)C[C@@H]1NC(=O)[C@@H]2CCCN2C(=O)[C@H]2CCCN2C(=O)[C@H]([C@@H](C)O)NC(=O)[C@H](C)NC(=O)[C@H](C(C)(C)C)NC(=O)[C@H](CCN)NC(=O)[C@H](Cc2c[nH]c3ccccc23)NC(=O)[C@H](CCN)NC(=O)[C@@H](CCN)NC(=O)[C@H](CCCN)NC(=O)[C@H](CCN)NC(=O)[C@H](Cc2ccc(O)cc2)NC(=O)[C@H](CO)NC1=O [compound 88] (cyclo(LSY[Dab][Orn][dDab][Dab]W[Dab][Tle]AT[dP]P)) | 1% |
| C[C@@H]1NC(=O)[C@H](C(C)(C)C)NC(=O)[C@H](CCN)NC(=O)[C@H](Cc2c[nH]c3ccccc23)NC(=O)[C@H](CCN)NC(=O)[C@@H](CCN)NC(=O)[C@H](CCCN)NC(=O)[C@H](CCN)NC(=O)[C@H](Cc2ccc(O)cc2)NC(=O)[C@H](CO)NC(=O)[C@H]([C@@H](C)O)NC(=O)[C@@H]2CCCN2C(=O)[C@H]2CCCN2C(=O)[C@H](Cc2ccc(O)cc2)NC1=O [compound 158] (cyclo(TSY[Dab][Orn][dDab][Dab]W[Dab][Tle]AY[dP]P)) | 1% |
| CC(C)C[C@@H]1NC(=O)[C@@H]2CCCN2C(=O)[C@H]2CCCN2C(=O)[C@H](CO)NC(=O)[C@H](CO)NC(=O)[C@H](C(C)(C)C)NC(=O)[C@H](CCN)NC(=O)[C@H](Cc2c[nH]c3ccccc23)NC(=O)[C@H](CCN)NC(=O)[C@@H](CCN)NC(=O)[C@H](CCCN)NC(=O)[C@H](CCN)NC(=O)[C@H](Cc2ccc(O)cc2)NC(=O)[C@H](C)NC1=O [compound 130] (cyclo(LAY[Dab][Orn][dDab][Dab]W[Dab][Tle]SS[dP]P)) | 0.2% |
| CC(C)C[C@@H]1NC(=O)[C@@H]2CCCN2C(=O)[C@H]2CCCN2C(=O)[C@H](CO)NC(=O)[C@@H](C)NC(=O)[C@H](C(C)(C)C)NC(=O)[C@H](CCN)NC(=O)[C@H](Cc2c[nH]c3ccccc23)NC(=O)[C@H](CCN)NC(=O)[C@@H](CCN)NC(=O)[C@H](CCCN)NC(=O)[C@H](CCN)NC(=O)[C@H](Cc2ccc(O)cc2)NC(=O)[C@H](CO)NC1=O [compound 154] (cyclo(LSY[Dab][Orn][dDab][Dab]W[Dab][Tle][dA]S[dP]P)) | 0% |
| CC[C@H](C)[C@@H]1NC(=O)[C@@H]2CCCN2C(=O)[C@H]2CCCN2C(=O)[C@H](CO)NC(=O)[C@H](C)NC(=O)[C@H](C(C)(C)C)NC(=O)[C@H](CCN)NC(=O)[C@H](Cc2c[nH]c3ccccc23)NC(=O)[C@H](CCN)NC(=O)[C@@H](CCN)NC(=O)[C@H](CCCN)NC(=O)[C@H](CCN)NC(=O)[C@H](Cc2ccc(O)cc2)NC(=O)[C@H](CO)NC1=O [compound 44] (cyclo(ISY[Dab][Orn][dDab][Dab]W[Dab][Tle]AS[dP]P)) | 2% |
| CC(C)C[C@@H]1NC(=O)[C@@H]2CCCN2C(=O)[C@H]2CCCN2C(=O)[C@H](CO)NC(=O)[C@H](C)NC(=O)[C@H](C(C)(C)C)NC(=O)[C@H](CCN)NC(=O)[C@H](Cc2c[nH]c3ccccc23)NC(=O)[C@H](CCN)NC(=O)[C@@H](CCN)NC(=O)[C@H](CCCN)NC(=O)[C@H](CCCN)NC(=O)[C@H](Cc2ccc(O)cc2)NC(=O)[C@H](CO)NC1=O [compound 87] (cyclo(LSY[Orn][Orn][dDab][Dab]W[Dab][Tle]AS[dP]P)) | 1% |
| CC(C)[C@@H]1NC(=O)[C@@H]2CCCN2C(=O)[C@H]2CCCN2C(=O)[C@H](CO)NC(=O)[C@H](C)NC(=O)[C@H](C(C)(C)C)NC(=O)[C@H](CCN)NC(=O)[C@H](Cc2c[nH]c3ccccc23)NC(=O)[C@H](CCN)NC(=O)[C@@H](CCN)NC(=O)[C@H](CCCN)NC(=O)[C@H](CCN)NC(=O)[C@H](CC2CCCCC2)NC(=O)[C@H](C)NC1=O [compound 51] (cyclo(VA[Cha][Dab][Orn][dDab][Dab]W[Dab][Tle]AS[dP]P)) | 1% |
| C[C@@H]1NC(=O)[C@H](C2CCCCC2)NC(=O)[C@H](CCN)NC(=O)[C@H](Cc2c[nH]c3ccccc23)NC(=O)[C@H](CCN)NC(=O)[C@@H](CCN)NC(=O)[C@H](CCCN)NC(=O)[C@H](CCN)NC(=O)[C@H](Cc2ccc(O)cc2)NC(=O)[C@H](CO)NC(=O)[C@H](Cc2ccc(O)cc2)NC(=O)[C@@H]2CCCN2C(=O)[C@H]2CCCN2C(=O)[C@H](CO)NC1=O [compound 73] (cyclo(YSY[Dab][Orn][dDab][Dab]W[Dab][Chg]AS[dP]P)) | 0% |
| CCC[C@@H]1NC(=O)[C@H](CCN)NC(=O)[C@H](Cc2c[nH]c3ccccc23)NC(=O)[C@H](CCN)NC(=O)[C@@H](CCN)NC(=O)[C@H](CCCN)NC(=O)[C@H](CCN)NC(=O)[C@H](Cc2ccc(O)cc2)NC(=O)[C@H](CO)NC(=O)[C@H](CC(C)C)NC(=O)[C@@H]2CCCN2C(=O)[C@H]2CCCN2C(=O)[C@H](CO)NC(=O)[C@H](C)NC1=O [compound 30] (cyclo(LSY[Dab][Orn][dDab][Dab]W[Dab][Nva]AS[dP]P)) | 1% |
| CC(C)C[C@@H]1NC(=O)[C@@H]2CCCN2C(=O)[C@H]2CCCN2C(=O)[C@H](CO)NC(=O)[C@H]([C@@H](C)O)NC(=O)[C@H](C(C)(C)C)NC(=O)[C@H](CCN)NC(=O)[C@H](Cc2c[nH]c3ccccc23)NC(=O)[C@H](CCN)NC(=O)[C@@H](CCN)NC(=O)[C@H](CCCN)NC(=O)[C@H](CCN)NC(=O)[C@H](Cc2ccc(O)cc2)NC(=O)[C@H](CC(N)=O)NC1=O [compound 120] (cyclo(LNY[Dab][Orn][dDab][Dab]W[Dab][Tle]TS[dP]P)) | 0% |
| C[C@@H]1NC(=O)[C@H](C(C)(C)C)NC(=O)[C@H](CCN)NC(=O)[C@H](Cc2c[nH]c3ccccc23)NC(=O)[C@H](CCN)NC(=O)[C@@H](CCN)NC(=O)[C@H](CCCN)NC(=O)[C@H](CCN)NC(=O)[C@H](CC2CCCCC2)NC(=O)[C@H](CO)NC(=O)[C@H](Cc2cscn2)NC(=O)[C@@H]2CCCN2C(=O)[C@H]2CCCN2C(=O)[C@H](CO)NC1=O [compound 22] (cyclo([Ala(4-thiazolyl)]S[Cha][Dab][Orn][dDab][Dab]W[Dab][Tle]AS[dP]P)) | 0% |
| CC(C)C[C@@H]1NC(=O)[C@@H]2CCCN2C(=O)[C@H]2CCCN2C(=O)[C@H](CO)NC(=O)[C@H](C)NC(=O)[C@H](C(C)(C)C)NC(=O)[C@H](CCN)NC(=O)[C@H](Cc2c[nH]c3ccccc23)NC(=O)[C@H](CCN)NC(=O)[C@@H](CCN)NC(=O)[C@H](CCCN)NC(=O)[C@H](CCN)NC(=O)[C@H](Cc2c[nH]c3ccccc23)NC(=O)[C@H](CN)NC1=O [compound 147] (cyclo(L[Dap]W[Dab][Orn][dDab][Dab]W[Dab][Tle]AS[dP]P)) | 0% |
